Data published in patent US20220135941A1, “COMPOSITIONS AND METHODS FOR LONG TERM CULTURE OF HEPATOCYTES” (Peking University, priority 2019, published 2022).

Tests used:
[1] = system: primary human hepatocytes (PHHs)
Protocol: (§1) The present study was approved by the Research Ethics Committee of China-Japan Friendship Hospital (Ethical approval No: 2009-50). PHHs were obtained from human donors. Human hepatocytes were isolated from discarded human livers. A modified two-step collagenase perfusion procedure was used to isolate primary human hepatocytes from these tissues (OOtani, et al., Nat Med., 15:701-706 (2009)). Briefly, the liver tissue was perfused with PB (perfusion buffer: 0.15 M NaCl; 5 mM KCl; 25 mM NaHCO3; 5 mM Glucose; 20 mM Hepes) to remove remaining blood cells, followed by PBE (perfusion buffer plus 1 mM EDTA) perfusion. The tissue was then perfused with PBC (perfusion buffer plus 1 mg/mL collagenase type IV, 5 mM CaCl2, Gibco). All the buffers were prewarmed to 37° C. prior to the isolation process. The hepatocytes suspension was collected and washed with Williams' Medium E (Gibco), then filtered through a 40 μm Nylon cell strainer (Falcon). The isolated hepatocytes were then seeded on collagen type I-coated (Rat tail collagen type I, Gibco) plates at a density of 2.5×10^5/cm2.
(§2) Serum-free medium used for hepatocyte culture (Null): Williams' medium E containing B27 (50×, Gibco), Glutmax (Gibco) and Pen Strep (Gibco). DMSO vehicle control: Null supplemented with nearly 0.035% DMSO. […] 24 h-Cultured hepatocytes were cultured in commercial medium HCM (Lonza).
Total RNA was isolated using the RNeasy Micro Kit (QIAGEN). RNA was converted to cDNA using First-Strand Synthesis SuperMix for qRT-PCR (Invitrogen). PCR was carried out using Power SYBR® Green PCR Master Mix (Applied Biosystems) and performed on an MX3000P Sequence Detection System (Stratagene). The data were analyzed using the delta-delta Ct method.

HBV = HBV infection of 5C-PHHs; type: cell-based; conditions: for HBV products (HBsAg, HBeAg, HBV RNA, HBV DNA, cccDNA) in infected 5C-PHHs: drug treatment of HBV infected 5C-PHHs
[2] = system: primary human hepatocytes (PHHs); test: PHH culture: morphology and survival; type: cell-based
Protocol: as §1, §2

[3] = system: primary human hepatocytes (PHHs); test: RNA-Seq global gene expression profiling of cultured PHHs; type: cell-based; conditions: hierarchical clustering
Text: Total RNA was isolated using the RNeasy Plus Mini Kit (QIAGEN). RNA sequencing libraries were constructed using the Illumina mRNA-Seq Prep Kit (Illumina). Fragmented and randomly primed 150 bp paired-end libraries were sequenced using Illumina HiSeq 4000. Software and algorithms used for transcriptome analysis are including Cutadapt 1.16 (http://cutadapt.readthedocs.io/en/stable/guide.html), Salmon 0.8.2 (https://combinelab. github.io/salmon/), and R 3.5.0 (https://www.r-project.org). The expression profiles of HepG2, F-PHHs-3 and F-PHHs-4 were downloaded as raw data. The expression profiles of PHH 0d, hiPSC-Hep rep1, hiPSC-Hep rep2, hiPSC-Hep rep3 and hiPSC-Hep rep4 (Gordillo, et al., Development, 142:2094-2108 (2015)) were downloaded as raw sequencing reads from GEO database (GSM2817112, GSM2753376, GSM2753377, GSM2753378, GSM2753379). To compare gene expression profile between paired-end and single end libraries, we used the read1 from our generated sequencing paired-end reads. The read1 and the downloaded single-end read were trimmed to the same 40 bp length by using Cut adapt. The expression values for each sample were quantified by Salmon. Unsupervised hierarchical clustering of RNA-Seq data was generated by hclust package in R.

HCV Jc1G = test: HCV infection of 5C-PHHs; type: cell-based; conditions: Gluc reporter and intracellular HCV RNA
Protocol: The Huh7.5 cell line was kindly provided by Professor Charles Rice and was routinely maintained in Dulbecco modified medium supplemented with 10% fetal bovine serum (Biological industries), 25 mM HEPES (Gibco) and Non-Essential Amino Acid (Gibco). For generating the cell cultured HCV, the plasmid encoding HCV Jc1FLAG2 (p7-nsGluc2A) (Jc1G in the text) was first linearized by XbaI digestion, and used as template for in-vitro-transcription by using MEGAscript (Invitrogen). HCVcc was generated as described previously by electroporation of the in-vitro-transcribed Jc1G RNA into Huh7.5 cells. Virus containing supernatants were harvested each day after 3 days post electroporation' and up to 7 days post electroporation. Supernatants were combined and the virus was concentrated by centrifugation using Amicon® Ultra-15 (100K) Centrifugal Filter Devices (Millipore) at 5000 g for 30 min at 4° C. The buffer was exchanged into PBS by repeated centrifugation with Amicon® Ultra-15. […]
For quantification of intracellular HCV RNA, cells were lysed in Trizol reagent (Invitrogen). […] The relative RNA levels were calculated using the 2-ΔΔCt method. […]
For quantification of luciferase activity, supernatants from each well were taken and mixed with equal volume of 2×passive lysis buffer (Promega). Luciferase activity was measured with Renilla luciferase substrate (Promega) according to manufacturer's protocol.

[4] = system: interferon-stimulated genes (ISGs); test: ISG expression in long-term cultured 5C-PHHs; type: cell-based, human

C[C@H](NC(=O)Cc1cc(F)cc(F)c1)C(=O)N[C@H](C(=O)OC(C)(C)C)c1ccccc1 [DAPT]
expression of EMT marker genes (COL1A1; Thy1; VIM) ([1]; added to SB43 and FSK combination): further blocked
expression of mesenchymal marker gene COL1A1 ([1]; combined with SB43 and FSK, day 14, normalized to FSK+SB43): decreased

Nc1ccn([C@@H]2CS[C@H](CO)O2)c(=O)n1 [LAM, lamivudine]
HBV products (HBsAg, HBeAg, HBV RNA, HBV DNA, cccDNA) in infected 5C-PHHs (HBV): reduction of HBV products

NC(=O)c1ccc(-c2nc(-c3ccc4c(c3)OCO4)c(-c3ccccn3)[nH]2)cc1 [SB43, 4-[4-(1,3-benzodioxol-5-yl)-5-(2-pyridinyl)-1H-imidazol-2-yl]benzamide]
expression of EMT-associated transcription factors SNAI2, TWIST1 ([1]; SB43 alone): failed to suppress
maintaining the functional state of PHHs ([1]; blocking TGF-β signaling with SB43 alone): limited effect
epithelial morphology with the expression of E-cadherin ([2]; SB43 treatment, after 2 weeks): maintained an epithelial morphology

CCCC(=O)Nc1ncnc2c1ncn2[C@@H]1O[C@@H]2COP(=O)([O-])O[C@H]2[C@H]1OC(=O)CCC.[Na+] [db-cAMP, Dibutyryl-cAMP, sodium salt]
global gene expression of PHHs when FSK is substituted [3]: replaced FSK

Daclatasvir [DCV]
HCV viral replication in 5C-PHHs (HCV Jc1G): effectively blocked

Forskolin [FSK]
EMT marker gene expression α-smooth muscle actin (ASMA) ([1]; combined with SB43, qRT-PCR at day 14): down-regulated
PHH survival ([2]; combined with SB43): sustained PHH survival

entecavir [ETV]
HBV products (HBsAg, HBeAg, HBV RNA, HBV DNA, cccDNA) in infected 5C-PHHs (HBV): reduction of HBV products

interferon-α [IFN-α]
cccDNA (HBV; cryopreserved PHHs cultured in 5C): significant reduction
HBV products (HBsAg, HBeAg, HBV RNA, HBV DNA, cccDNA) in infected 5C-PHHs (HBV): reduction of HBV products
interferon-stimulated genes (ISGs) expression [4]: significantly upregulated
